The compounds below were run against T1, LPA/S1P GPCR of interest (Homo sapiens, UniProt Q92633) (assay: Beta-Arrestin based assay (PathHunter)).
T1 construct: host or cells: CHO
Type: cell-based
Protocol: CMV promoter based DNA constructs expressing a fusion of the LPA/S1P GPCR of interest and ProLink™ tag were used to transfect EA Parental™ CHO cells (DiscoverX, Fremont, Calif.) using a FuGENE® transfection kit (Roche). Beta-Arrestin based assays were conducted 24-48 hrs post transfection using PathHunter® assay kits (DiscoverX, Fremont, Calif.). Agonist and antagonist assays were performed in quadruplicate in white 384 well plates. End point luminescence data were plotted and fit to a 4 parameter logistic function to obtain IC50 values. For antagonist assays, an IC80 concentration of agonist (LPA) equal to 0.5 micromolar was used.

T1 sequence (Q92633 whole entry): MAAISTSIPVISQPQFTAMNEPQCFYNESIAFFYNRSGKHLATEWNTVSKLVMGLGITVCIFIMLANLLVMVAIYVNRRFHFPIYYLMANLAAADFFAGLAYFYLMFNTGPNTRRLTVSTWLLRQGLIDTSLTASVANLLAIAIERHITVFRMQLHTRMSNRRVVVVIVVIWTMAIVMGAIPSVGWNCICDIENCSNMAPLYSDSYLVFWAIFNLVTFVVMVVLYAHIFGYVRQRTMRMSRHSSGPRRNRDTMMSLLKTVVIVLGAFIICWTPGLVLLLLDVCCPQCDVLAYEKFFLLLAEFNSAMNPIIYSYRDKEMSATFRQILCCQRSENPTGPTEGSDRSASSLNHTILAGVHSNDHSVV

Compound	EC50 [nM]
Cc1cc(-c2cc3sc(-c4snc(C)c4NC(=O)O[C@H](C)c4ccccc4)cc3s2)c(F)cc1CC(=O)O [IT241]	> 500
Cc1noc(-c2ccc(NC(=O)c3csc(C4(C(=O)O)CC4)n3)cc2)c1NC(=O)O[C@H](C)c1ccccc1 [IT152]	> 500
C[C@@H](OC(=O)Nc1c(-c2cc3sc(-c4ccc(C5(C(=O)O)CC5)cc4C(F)(F)F)cc3s2)cnn1C)c1ccccc1 [IT247]	50 to 500
COc1cc(-c2cc3sc(-c4snc(C)c4NC(=O)O[C@H](C)c4ccccc4)cc3s2)cnc1C1(C(=O)O)CC1 [IT359]	50 to 500
C[C@@H](OC(=O)Nc1scnc1C#Cc1cc2sc(C3(C(=O)O)CC3)cc2s1)c1ccccc1 [IT116]	> 500
C[C@@H](OC(=O)Nc1c(-c2cc3sc(-c4ccc(CC(=O)O)c5ccccc45)cc3s2)cnn1C)c1ccccc1 [IT319]	> 500
C[C@@H](OC(=O)Nc1c(-c2ccc(-c3nnc(C4(C(=O)O)CC4)s3)cc2)nnn1C)c1ccccc1 [IT208]	> 500
COc1cc(-c2cc3sc(-c4cnn(C)c4NC(=O)O[C@H](C)c4ccccc4)cc3s2)cnc1C1(C(=O)O)CC1 [IT275]	50 to 500
C[C@@H](OC(=O)Nc1c(-c2cc3sc(-c4ccc(C5(C(=O)O)CC5)cc4C(F)(F)F)cc3s2)nnn1C)c1ccccc1 [IT299]	50 to 500
Cc1nsc(-c2ccc(-c3nnc(C4(C(=O)O)CC4)o3)cc2)c1NC(=O)O[C@H](C)c1ccccc1 [IT176]	> 500
Cc1noc(-c2ccc3c(c2)CCCc2cc(CC(=O)O)ccc2-3)c1NC(=O)O[C@H](C)c1ccccc1 [IT280]	< 50
COc1cc(-c2cc3sc(-c4nnn(C)c4NC(=O)O[C@H](C)c4ccccc4)cc3s2)ccc1C1(C(=O)O)CC1 [IT330]	50 to 500
Cc1nsc(-c2cc3sc(-c4ccc5occ(CC(=O)O)c5c4)cc3s2)c1NC(=O)O[C@H](C)c1ccccc1 [IT333]	50 to 500
COc1cc(-c2cc3sc(-c4nnn(C)c4NC(=O)O[C@H](C)c4ccccc4)cc3s2)c(OC)cc1CC(=O)O [IT350]	> 500
Cc1nsc(-c2cc3sc(-c4ccc5scc(CC(=O)O)c5c4)cc3s2)c1NC(=O)O[C@H](C)c1ccccc1 [IT354]	> 500
Cc1cc(C2(C(=O)O)CC2)c(F)cc1-c1cc2sc(-c3snc(C)c3NC(=O)O[C@H](C)c3ccccc3)cc2s1 [IT343]	< 50
C[C@@H](OC(=O)Nc1c(-c2ccc(-c3ccc(C(=O)O)s3)cc2)nnn1C)c1ccccc1 [IT203]	> 500
Cc1nsc(-c2cc3sc(-c4ccc(C5(C(=O)O)CC5)c(F)c4)cc3s2)c1NC(=O)O[C@H](C)c1ccccc1 [IT297]	< 50
Cc1cc(CC(=O)O)c(F)cc1-c1cc2sc(-c3nnn(C)c3NC(=O)O[C@H](C)c3ccccc3)cc2s1 [IT253]	50 to 500
C[C@@H](OC(=O)Nc1c(-c2cc3sc(-c4cc(F)c(CC(=O)O)cc4F)cc3s2)cnn1C)c1ccccc1 [IT327]	50 to 500
C[C@@H](OC(=O)Nc1c(-c2cc3sc(-c4ccc(C5(C(=O)O)CC5)s4)cc3s2)nnn1C)c1ccccc1 [IT273]	50 to 500

Compound	EC50 [nM]
COc1cc(C2(C(=O)O)CC2)ccc1-c1cc2sc(-c3nnn(C)c3NC(=O)O[C@H](C)c3ccccc3)cc2s1 [IT357]	50 to 500
C[C@@H](OC(=O)Nc1c(-c2cc3sc(-c4ccc(C5(C(=O)O)CC5)c5ccccc45)cc3s2)cnn1C)c1ccccc1 [IT320]	> 500
Cc1nsc(-c2cc3sc(-c4ccc(CC(=O)O)c(F)c4)cc3s2)c1NC(=O)O[C@H](C)c1ccccc1 [IT294]	50 to 500
C[C@@H](OC(=O)Nc1c(-c2cc3sc(-c4ccc(CC(=O)O)c(F)c4)cc3s2)nnn1C)c1ccccc1 [IT293]	50 to 500
Cc1nsc(-c2cc3sc(-c4cc(Cl)c(C5(C(=O)O)CC5)cc4F)cc3s2)c1NC(=O)O[C@H](C)c1ccccc1 [IT286]	50 to 500
COc1cc(-c2cc3sc(-c4snc(C)c4NC(=O)O[C@H](C)c4ccccc4)cc3s2)ccc1C1(C(=O)O)CC1 [IT331]	50 to 500
COc1cc(-c2cc3sc(-c4cnn(C)c4NC(=O)O[C@H](C)c4ccccc4)cc3s2)ccc1CC(=O)O [IT221]	50 to 500
COc1cc(-c2cc3sc(-c4snc(C)c4NC(=O)O[C@H](C)c4ccccc4)cc3s2)ccc1CC(=O)O [IT219]	> 500
Cc1nsc(-c2cc3sc(-c4ccc(C5(C(=O)O)CC5)cc4F)cc3s2)c1NC(=O)O[C@H](C)c1ccccc1 [IT244]	< 50
C[C@@H](OC(=O)Nc1c(-c2ccc(-c3ncc(C(=O)O)s3)cc2)nnn1C)c1ccccc1 [IT209]	> 500
C[C@@H](OC(=O)Nc1c(-c2cc3sc(-c4ccc5scc(CC(=O)O)c5c4)cc3s2)cnn1C)c1ccccc1 [IT353]	50 to 500
C[C@@H](NC(=O)Nc1c(C#Cc2cc3sc(C4(C(=O)O)CC4)cc3s2)cnn1C)c1ccccc1 [IT109]	< 50
Cc1nsc(-c2cc3sc(-c4cc(F)c(CC(=O)O)cc4F)cc3s2)c1NC(=O)O[C@H](C)c1ccccc1 [IT326]	50 to 500
COc1cc(C2(C(=O)O)CC2)ccc1-c1cc2sc(-c3snc(C)c3NC(=O)O[C@H](C)c3ccccc3)cc2s1 [IT360]	> 500
C[C@@H](OC(=O)Nc1c(-c2ccc(-c3nnc(CC(=O)O)o3)cc2)nnn1C)c1ccccc1 [IT143]	> 500
C[C@@H](OC(=O)Nc1c(-c2cc3sc(-c4ccc5occ(C6(C(=O)O)CC6)c5c4)cc3s2)cnn1C)c1ccccc1 [IT334]	> 500
Cc1nsc(-c2ccc(-c3nnc(C4(C(=O)O)CC4)s3)cc2)c1NC(=O)O[C@H](C)c1ccccc1 [IT200]	> 500
Cc1cc(CC(=O)O)c(F)cc1-c1cc2sc(-c3snc(C)c3NC(=O)O[C@H](C)c3ccccc3)cc2s1 [IT252]	> 500
Cn1ncc(C#Cc2cc3sc(C4(C(=O)O)CC4)cc3s2)c1N [IT113]	> 500
Cc1cc(-c2cc3sc(-c4snc(C)c4NC(=O)O[C@H](C)c4ccccc4)cc3s2)c(F)cc1C1(C(=O)O)CC1 [IT338]	50 to 500

Next, values leading:

EC50 [nM]	Compound
> 500	C[C@@H](OC(=O)Nc1c(-c2cc3sc(-c4ccc5scc(C6(C(=O)O)CC6)c5c4)cc3s2)nnn1C)c1ccccc1 [IT372]
< 50	Cc1cc(C2(C(=O)O)CC2)ccc1-c1cc2sc(-c3snc(C)c3NC(=O)O[C@H](C)c3ccccc3)cc2s1 [IT361]
> 500	C[C@@H](OC(=O)Nc1c(-c2ccc(C#CC(=O)Nc3cccc(C(=O)O)c3)cc2)cnn1C)c1ccccc1 [IT429]
> 500	Cc1nsc(-c2cc3sc(-c4ccc(CC(=O)O)cc4OC(F)(F)F)cc3s2)c1NC(=O)O[C@H](C)c1ccccc1 [IT384]
> 500	C[C@@H](OC(=O)Nc1c(-c2ccc(C#CC(=O)O)cc2)cnn1C)c1ccccc1 [IT371]
> 500	CC(C)[C@H](NC(=O)C#Cc1ccc(-c2cnn(C)c2NC(=O)O[C@H](C)c2ccccc2)cc1)C(=O)O [IT404]
50 to 500	Cc1nsc(-c2cc3sc(-c4ccc(C5(C(=O)O)CC5)cc4OC(F)(F)F)cc3s2)c1NC(=O)O[C@H](C)c1ccccc1 [IT387]
> 500	C[C@@H](OC(=O)Nc1c(-c2cc3sc(-c4ccc5[nH]c(C6(C(=O)O)CC6)nc5c4)cc3s2)nnn1C)c1ccccc1 [IT422]
> 500	COc1cc(CC(=O)O)c(F)cc1-c1cc2sc(-c3snc(C)c3NC(=O)O[C@H](C)c3ccccc3)cc2s1 [IT382]
50 to 500	Cc1noc(-c2ccc(-c3ccc(Oc4ccc(C(=O)O)s4)cc3)cc2)c1NC(=O)O[C@H](C)c1ccccc1 [IT409]
< 50	Cc1nsc(-c2cc3sc(-c4ccc(C5(C(=O)O)CC5)c(F)c4F)cc3s2)c1NC(=O)O[C@H](C)c1ccccc1 [IT366]
50 to 500	C[C@@H](OC(=O)Nc1c(-c2ccc(-c3ccc(OC(C)(C)C(=O)O)cc3)cc2)oc2ccccc12)c1ccccc1 [IT508]
> 500	C[C@H](NC(=O)C#Cc1ccc(-c2cnn(C)c2NC(=O)O[C@H](C)c2ccccc2)cc1)C(=O)O [IT400]
> 500	C[C@@H](OC(=O)Nc1c(-c2ccc(C#CC(=O)Nc3ccccc3C(=O)O)cc2)cnn1C)c1ccccc1 [IT430]
50 to 500	Cc1noc(-c2ccc(-c3ccc(Oc4nnn(C)c4C(=O)O)cc3)cc2)c1NC(=O)O[C@H](C)c1ccccc1 [IT471]
> 500	C[C@@H](OC(=O)Nc1nn(C)cc1-c1ccc(-c2cc(F)c(Oc3ncccc3C(=O)O)c(F)c2)cc1)c1ccccc1 [IT472]
> 500	C[C@@H](OC(=O)Nc1c(-c2ccc(C#CC(=O)N(C)CCC(=O)O)cc2)cnn1C)c1ccccc1 [IT466]
50 to 500	Cc1nsc(-c2cc3sc(-c4ccc(C5(C(=O)O)CC5)c(C(F)(F)F)c4)cc3s2)c1NC(=O)O[C@H](C)c1ccccc1 [IT381]
50 to 500	C[C@@H](OC(=O)Nc1c(-c2cc3sc(-c4cnc(C5(C(=O)O)CC5)c(F)c4)cc3s2)cnn1C)c1ccccc1 [IT392]
> 500	COc1cc(CC(=O)O)c(F)cc1-c1cc2sc(-c3cnn(C)c3NC(=O)O[C@H](C)c3ccccc3)cc2s1 [IT410]
> 500	C[C@@H](OC(=O)Nc1c(-c2cc3sc(-c4ccc(C5(C(=O)O)CC5)c(S(C)(=O)=O)c4)cc3s2)cnn1C)c1ccccc1 [IT441]
50 to 500	C[C@@H](OC(=O)Nc1c(-c2cc3sc(-c4ccc5c(C6(C(=O)O)CC6)coc5c4)cc3s2)nnn1C)c1ccccc1 [IT396]
< 50	C[C@@H](OC(=O)Nc1c(-c2ccc(-c3cc(F)c(Oc4cc(F)ccc4C(=O)O)c(F)c3)cc2)nnn1C)c1ccccc1 [IT514]
< 50	Cc1noc(-c2ccc(-c3ccc(Oc4c(C(=O)O)ncn4C)cc3)cc2)c1NC(=O)O[C@H](C)c1ccccc1 [IT444]
> 500	COc1cc(C2(C(=O)O)CC2)c(OC)cc1-c1cc2sc(-c3cnn(C)c3NC(=O)O[C@H](C)c3ccccc3)cc2s1 [IT414]
> 500	C[C@@H](OC(=O)Nc1c(-c2cc3sc(-c4ccc5c(CC(=O)O)c[nH]c5c4)cc3s2)nnn1C)c1ccccc1 [IT378]
50 to 500	Cc1nsc(-c2cc3sc(-c4ccc(C5(C(=O)O)CC5)cn4)cc3s2)c1NC(=O)O[C@H](C)c1ccccc1 [IT426]

From patent publication US20140213538A1, “LYSOPHOSPHATIDIC ACID RECEPTOR ANTAGONISTS” (InterMune, Inc., priority 2013, published 2014)
